According to patent US11576416B2, “Method of producing microparticles of the type having a crosslinked, aggregated protein matrix by spray drying” (Anabio Technologies Limited, priority 2015, dated 2023):

Key:
[1] = system: Lb. acidophilus; assay: Survival of probiotic bacteria during the drying process; format: cell-based; conditions: acid used as the weak acid in the mix
Text: The pH of the final product will dictate the type of weak acid to be utilised.

[2] = system: experimental animals; conditions: cited from earlier work

| Compound | Viability of probiotic bacteria during the drying process [1] | Hazard to man or animals ([2]; at the level succinic acid occurs naturally in foods) | Amount tolerated by experimental animals ([2]; experimental animals) |
| --- | --- | --- | --- |
| O=C1O[C@H]([C@@H](O)CO)C(O)=C1O [Ascorbic acid] | has not effect |  |  |
| O=C(O)CCC(=O)O [succinic acid, butanedioic acid] | has not effect | no evidence that it is hazardous | several |
